Experimental findings from ChEMBL document CHEMBL5715939, “Aurora kinase inhibitors: a new class of targeted drugs in cancer” (Clin Lung Cancer, 2006) are described below.

The target of data set [1] is Aurora kinase B (Homo sapiens, UniProt Q96GD4). As to the kind of experiment: Inhibition of human aurora B.
Data set [2] addresses T1, Receptor-type tyrosine-protein kinase FLT3 (Homo sapiens, UniProt P36888).
T1 sequence (P36888 whole entry): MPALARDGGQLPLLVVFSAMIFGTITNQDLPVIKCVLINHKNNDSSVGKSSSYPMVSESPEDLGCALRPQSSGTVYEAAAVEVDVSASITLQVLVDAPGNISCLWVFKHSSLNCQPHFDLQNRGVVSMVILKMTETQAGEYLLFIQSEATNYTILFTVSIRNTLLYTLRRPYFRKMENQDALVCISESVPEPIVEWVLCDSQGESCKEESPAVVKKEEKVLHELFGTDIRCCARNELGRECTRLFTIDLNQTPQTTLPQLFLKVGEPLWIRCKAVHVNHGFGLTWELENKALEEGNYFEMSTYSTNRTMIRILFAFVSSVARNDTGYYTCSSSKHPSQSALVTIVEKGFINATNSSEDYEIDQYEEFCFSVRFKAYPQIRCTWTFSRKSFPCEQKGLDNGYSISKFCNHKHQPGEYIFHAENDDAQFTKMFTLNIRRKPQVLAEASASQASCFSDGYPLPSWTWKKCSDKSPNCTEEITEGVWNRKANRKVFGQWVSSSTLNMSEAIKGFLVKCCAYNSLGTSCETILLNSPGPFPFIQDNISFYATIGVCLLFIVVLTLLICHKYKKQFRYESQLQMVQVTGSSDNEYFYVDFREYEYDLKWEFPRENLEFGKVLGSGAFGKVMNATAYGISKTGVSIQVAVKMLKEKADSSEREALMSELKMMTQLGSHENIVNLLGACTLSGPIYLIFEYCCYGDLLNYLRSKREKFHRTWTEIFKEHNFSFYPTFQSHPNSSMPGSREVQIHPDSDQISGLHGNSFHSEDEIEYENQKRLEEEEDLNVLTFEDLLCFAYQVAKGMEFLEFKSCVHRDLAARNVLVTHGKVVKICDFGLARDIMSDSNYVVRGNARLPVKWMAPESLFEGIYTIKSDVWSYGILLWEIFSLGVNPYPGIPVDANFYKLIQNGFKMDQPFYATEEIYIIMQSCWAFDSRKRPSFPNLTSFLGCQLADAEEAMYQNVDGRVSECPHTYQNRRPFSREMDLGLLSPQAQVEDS
As to the kind of experiment: Inhibition of human FLT3.

Data set [3] concerns the target T2, Aurora kinase C (Homo sapiens, UniProt Q9UQB9).
T2 sequence (Q9UQB9 whole entry): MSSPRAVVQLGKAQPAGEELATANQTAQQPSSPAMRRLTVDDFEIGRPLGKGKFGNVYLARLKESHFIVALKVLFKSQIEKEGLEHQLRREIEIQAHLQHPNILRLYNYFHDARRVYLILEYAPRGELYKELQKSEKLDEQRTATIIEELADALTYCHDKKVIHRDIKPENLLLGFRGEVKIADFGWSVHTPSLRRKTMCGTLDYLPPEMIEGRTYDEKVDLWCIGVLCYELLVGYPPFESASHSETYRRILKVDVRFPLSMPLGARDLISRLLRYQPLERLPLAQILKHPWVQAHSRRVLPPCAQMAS
As to the kind of experiment: Inhibition of human aurora C.

Data set [4] in a line: Half life in human patient with advanced solid tumors at 0.5 to 12 mg/m2/hr, iv administered by continuous intravenous infusion over 5 days every 4 weeks. The note with it: in vivo, dose 0.5-12 mg/m2/hr, time 5 day. It counts as ADME, organism-based.
Data set [5] can be described thus: Cmax in plasma of human patient with advanced solid tumors at 0.5 to 12 mg/m2/hr, iv administered by continuous intravenous infusion over 5 days every 4 weeks. The class given is ADME, organism-based. The note with it: dose 0.5-12 mg/m2/hr, time 5 day.

Sequence of Aurora kinase B (Q96GD4 whole entry): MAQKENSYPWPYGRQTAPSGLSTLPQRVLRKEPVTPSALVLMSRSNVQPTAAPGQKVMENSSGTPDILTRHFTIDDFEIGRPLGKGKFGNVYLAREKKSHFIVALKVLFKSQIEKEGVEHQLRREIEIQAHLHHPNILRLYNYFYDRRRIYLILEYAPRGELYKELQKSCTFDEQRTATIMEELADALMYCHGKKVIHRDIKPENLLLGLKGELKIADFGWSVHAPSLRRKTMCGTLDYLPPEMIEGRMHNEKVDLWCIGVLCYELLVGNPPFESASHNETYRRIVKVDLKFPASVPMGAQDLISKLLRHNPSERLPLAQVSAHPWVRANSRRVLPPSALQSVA

Take `CCc1cccc(CC)c1NC(=O)N1Cc2n[nH]c(NC(=O)c3ccc(N4CCN(C)CC4)cc3)c2C1` [PHA-680632]: the IC50 was 35 nM in data set [1] and 390 nM in data set [2]. Compound `CCN(CCCOc1ccc2c(Nc3cc(CC(=O)Nc4cccc(F)c4)n[nH]3)ncnc2c1)CCOP(=O)(O)O` [BARASERTIB] came in with a Ki in data set [3] of 17 nM.

In the case of `O=C(Nc1c[nH]nc1-c1nc2cc(CN3CCOCC3)ccc2[nH]1)NC1CC1` [AT-9283], the IC50 in data set [1] is less than 3 nM.

As for `Cc1cc(Nc2cc(N3CCN(C)CC3)nc(Sc3ccc(NC(=O)C4CC4)cc3)n2)[nH]n1` [TOZASERTIB], in data set [4], the half-life is 15 h. The compound also had a Cmax in data set [5] of 650 nM.
